Reference: PubChem BioAssay (NCI)
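Following 48 hours of exposure in 96-well plates, responses at five concentrations were used to interpolate endpoints linearly. Abbreviation: GI50, concentration required for 50% inhibition of growth. The concentration for full growth arrest is given as TGI.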

Legend:
Assay in all cases: NCI tumour cell line growth inhibition, 48 h
K-562 leukemia = test system: K-562 leukemia
PC-3 prostate = test system: PC-3 prostate
NCI/ADR-RES ovarian = test system: NCI/ADR-RES ovarian
OVCAR-3 ovarian = test system: OVCAR-3 ovarian
SF-268 CNS = test system: SF-268 CNS
DU-145 prostate = test system: DU-145 prostate
HCT-15 colon = test system: HCT-15 colon
HT29 colon = test system: HT29 colon
SK-MEL-5 melanoma = test system: SK-MEL-5 melanoma
EKVX NSCLC = test system: EKVX NSCLC
NCI-H522 lung = test system: NCI-H522 lung
HCC-2998 colon = test system: HCC-2998 colon
BT-549 breast = test system: BT-549 breast
COLO 205 colon = test system: COLO 205 colon
TK-10 renal = test system: TK-10 renal
UACC-62 melanoma = test system: UACC-62 melanoma
SR leukemia = test system: SR leukemia
SF-295 CNS = test system: SF-295 CNS
SNB-19 CNS = test system: SNB-19 CNS
MDA-MB-435 = test system: MDA-MB-435
OVCAR-5 ovarian = test system: OVCAR-5 ovarian
NCI-H23 lung = test system: NCI-H23 lung
KM12 colon = test system: KM12 colon
CCRF-CEM leukemia = test system: CCRF-CEM leukemia
SF-539 CNS = test system: SF-539 CNS
A498 renal = test system: A498 renal
UACC-257 melanoma = test system: UACC-257 melanoma
SK-MEL-28 melanoma = test system: SK-MEL-28 melanoma
ACHN renal = test system: ACHN renal
UO-31 renal = test system: UO-31 renal
T-47D breast = test system: T-47D breast
IGROV1 ovarian = test system: IGROV1 ovarian
OVCAR-4 ovarian = test system: OVCAR-4 ovarian
HL-60(TB) leukemia = test system: HL-60(TB) leukemia
RXF 393 renal = test system: RXF 393 renal
MOLT-4 leukemia = test system: MOLT-4 leukemia
HOP-92 NSCLC = test system: HOP-92 NSCLC
LOX IMVI melanoma = test system: LOX IMVI melanoma
MDA-MB-231 breast = test system: MDA-MB-231 breast
U251 CNS = test system: U251 CNS
HCT-116 colon = test system: HCT-116 colon
SK-OV-3 ovarian = test system: SK-OV-3 ovarian
MCF7 breast = test system: MCF7 breast
MALME-3M melanoma = test system: MALME-3M melanoma
SK-MEL-2 melanoma = test system: SK-MEL-2 melanoma
OVCAR-8 ovarian = test system: OVCAR-8 ovarian
SW-620 colon = test system: SW-620 colon
HOP-62 NSCLC = test system: HOP-62 NSCLC
CAKI-1 renal = test system: CAKI-1 renal
NCI-H460 lung = test system: NCI-H460 lung
A549 NSCLC = test system: A549 NSCLC
786-0 renal = test system: 786-0 renal
M14 melanoma = test system: M14 melanoma
RPMI-8226 leukemia = test system: RPMI-8226 leukemia
SN12C renal = test system: SN12C renal
SNB-75 CNS = test system: SNB-75 CNS

In the case of `Cc1nc(-c2cc3c(ccc4ccccc43)oc2=O)cc2c1c(=O)oc1ccc3ccccc3c12`, the TGI (K-562 leukemia) is reported as > 100 µM, the TGI (PC-3 prostate) is reported as > 100 µM and the TGI (NCI/ADR-RES ovarian) is reported as > 100 µM. The TGI (OVCAR-3 ovarian) was > 100 µM, the TGI (SF-268 CNS) was > 100 µM and the TGI (DU-145 prostate) was > 100 µM. For the same compound, the TGI (HCT-15 colon) was > 100 µM, the TGI (HT29 colon) was > 100 µM and the TGI (SK-MEL-5 melanoma) was > 100 µM. The TGI (EKVX NSCLC) was > 100 µM, the TGI (NCI-H522 lung) was > 100 µM and the TGI (HCC-2998 colon) was > 100 µM. For the same compound, the TGI (BT-549 breast) was > 100 µM, the TGI (COLO 205 colon) was > 100 µM and the TGI (TK-10 renal) was > 100 µM. The TGI (UACC-62 melanoma) was > 100 µM, the TGI (SR leukemia) was > 100 µM and the TGI (SF-295 CNS) was > 100 µM. The TGI (SNB-19 CNS) was > 100 µM, the TGI (MDA-MB-435) was > 100 µM and the TGI (OVCAR-5 ovarian) was > 100 µM. The TGI (NCI-H23 lung) was > 100 µM, the TGI (KM12 colon) was > 100 µM and the TGI (CCRF-CEM leukemia) was > 100 µM. The TGI (SF-539 CNS) was > 100 µM, the TGI (A498 renal) was > 100 µM and the TGI (UACC-257 melanoma) was > 100 µM. The TGI (SK-MEL-28 melanoma) was > 100 µM, the TGI (ACHN renal) was > 100 µM and the TGI (UO-31 renal) was > 100 µM. The TGI (T-47D breast) was > 100 µM, the TGI (IGROV1 ovarian) was > 100 µM and the TGI (OVCAR-4 ovarian) was > 100 µM. For the same compound, the TGI (HL-60(TB) leukemia) was > 100 µM, the TGI (RXF 393 renal) was > 100 µM and the TGI (MOLT-4 leukemia) was > 100 µM. For the same compound, the TGI (HOP-92 NSCLC) was > 100 µM, the TGI (LOX IMVI melanoma) was > 100 µM and the TGI (MDA-MB-231 breast) was > 100 µM. The TGI (U251 CNS) was > 100 µM, the TGI (HCT-116 colon) was > 100 µM and the TGI (SK-OV-3 ovarian) was > 100 µM. The TGI (MCF7 breast) was > 100 µM, the TGI (MALME-3M melanoma) was > 100 µM and the TGI (SK-MEL-2 melanoma) was > 100 µM. For the same compound, the TGI (OVCAR-8 ovarian) was > 100 µM, the TGI (SW-620 colon) was > 100 µM and the TGI (HOP-62 NSCLC) was > 100 µM. The TGI (CAKI-1 renal) was > 100 µM, the TGI (NCI-H460 lung) was > 100 µM and the TGI (A549 NSCLC) was > 100 µM. The TGI (786-0 renal) was > 100 µM and the TGI (M14 melanoma) was > 100 µM.
Compound `CC(=O)O[C@H]1CC[C@]2(C)[C@H]3CC=C4[C@@H]5CC(C)(C)CC[C@]5(C(=O)NCCNCCN)CC[C@@]4(C)[C@]3(C)CC[C@H]2C1(C)C` has a GI50 (PC-3 prostate) of 1.1 µM, a TGI (PC-3 prostate) of 2.43 µM and a GI50 (NCI/ADR-RES ovarian) of 1.65 µM. The TGI (NCI/ADR-RES ovarian) was 3.65 µM, the GI50 (DU-145 prostate) was 1.29 µM and the TGI (DU-145 prostate) was 2.74 µM. The GI50 (HCT-15 colon) was 0.282 µM, the TGI (HCT-15 colon) was 0.895 µM and the GI50 (HCC-2998 colon) was 0.624 µM. For the same compound, the TGI (HCC-2998 colon) was 2.12 µM, the GI50 (BT-549 breast) was 1.68 µM and the TGI (BT-549 breast) was 3.3 µM. It also gave a GI50 (SF-295 CNS) of 1.77 µM, a TGI (SF-295 CNS) of 3.25 µM and a GI50 (MDA-MB-435) of 1.34 µM. For the same compound, the TGI (MDA-MB-435) was 2.65 µM, the GI50 (OVCAR-5 ovarian) was 1.64 µM and the TGI (OVCAR-5 ovarian) was 3.09 µM. For the same compound, the GI50 (RPMI-8226 leukemia) was 1.2 µM, the TGI (RPMI-8226 leukemia) was 3.52 µM and the GI50 (KM12 colon) was 1.64 µM. For the same compound, the TGI (KM12 colon) was 3.17 µM, the GI50 (SF-539 CNS) was 1.51 µM and the TGI (SF-539 CNS) was 2.94 µM. It also gave a GI50 (SK-MEL-28 melanoma) of 1.71 µM, a TGI (SK-MEL-28 melanoma) of 3.23 µM and a GI50 (SN12C renal) of 1.67 µM. The TGI (SN12C renal) was 3.23 µM, the GI50 (ACHN renal) was 0.196 µM and the TGI (ACHN renal) was 0.388 µM. For the same compound, the GI50 (UO-31 renal) was 1.28 µM, the TGI (UO-31 renal) was 2.76 µM and the GI50 (OVCAR-8 ovarian) was 1.7 µM. The TGI (OVCAR-8 ovarian) was 4.27 µM, the GI50 (CAKI-1 renal) was 1.25 µM and the TGI (CAKI-1 renal) was 2.59 µM. For the same compound, the GI50 (SNB-75 CNS) was 1.36 µM and the TGI (SNB-75 CNS) was 2.65 µM.
With `Cc1ccc(-c2cc3nc(C(Cl)Cl)nc(-c4cccnc4)n3n2)cc1` the GI50 (K-562 leukemia) was 2.01 µM, the TGI (K-562 leukemia) was > 100 µM and the GI50 (DU-145 prostate) was 0.548 µM. For the same compound, the TGI (DU-145 prostate) was 3.79 µM, the GI50 (HT29 colon) was 0.652 µM and the TGI (HT29 colon) was > 100 µM. The GI50 (SR leukemia) was 0.495 µM, the TGI (SR leukemia) was > 100 µM and the GI50 (MOLT-4 leukemia) was 1.83 µM. For the same compound, the TGI (MOLT-4 leukemia) was > 100 µM, the GI50 (MCF7 breast) was 2.01 µM and the TGI (MCF7 breast) was > 100 µM. The GI50 (OVCAR-8 ovarian) was 1.48 µM and the TGI (OVCAR-8 ovarian) was > 100 µM.
